Assay results: ChEMBL document CHEMBL4184291, “Discovery of N-arylpyrroles as agonists of GPR120 for the treatment of type II diabetes” (Bioorg Med Chem Lett, 2018)

Columns and labels:
Mus musculus [1] = assay: Antiobesity activity in diet-induced obesity C57Bl6/J mouse model assessed as change in plasma insulin level at 10 mg/kg bid for 15 days measured on day 15 post 6 hrs fasting; type: functional
Cytochrome P450 2C9 = Cytochrome P450 2C9 (Homo sapiens, UniProt P11712); assay: Inhibition of CYP2C9 (unknown origin); type: ADME
Chain of Cytochrome P450 2C9 (P11712 whole entry): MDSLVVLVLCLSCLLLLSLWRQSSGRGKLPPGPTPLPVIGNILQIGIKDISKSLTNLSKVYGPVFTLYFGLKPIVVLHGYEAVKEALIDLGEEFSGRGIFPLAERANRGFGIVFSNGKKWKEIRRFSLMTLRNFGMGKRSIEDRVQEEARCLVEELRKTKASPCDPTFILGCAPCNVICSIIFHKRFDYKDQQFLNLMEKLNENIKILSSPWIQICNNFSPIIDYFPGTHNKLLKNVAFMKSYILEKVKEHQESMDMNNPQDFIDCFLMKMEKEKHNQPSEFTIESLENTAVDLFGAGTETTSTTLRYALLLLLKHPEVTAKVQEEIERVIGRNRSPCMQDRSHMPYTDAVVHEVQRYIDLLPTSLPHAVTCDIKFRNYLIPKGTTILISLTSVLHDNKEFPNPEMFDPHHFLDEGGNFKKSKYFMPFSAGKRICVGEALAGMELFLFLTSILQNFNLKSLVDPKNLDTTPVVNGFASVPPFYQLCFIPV

Cytochrome P450 1A2 = biological target: T1, Cytochrome P450 1A2 (Homo sapiens, UniProt P05177); assay: Inhibition of CYP1A2 (unknown origin); type: ADME
T1 sequence (P05177 whole entry): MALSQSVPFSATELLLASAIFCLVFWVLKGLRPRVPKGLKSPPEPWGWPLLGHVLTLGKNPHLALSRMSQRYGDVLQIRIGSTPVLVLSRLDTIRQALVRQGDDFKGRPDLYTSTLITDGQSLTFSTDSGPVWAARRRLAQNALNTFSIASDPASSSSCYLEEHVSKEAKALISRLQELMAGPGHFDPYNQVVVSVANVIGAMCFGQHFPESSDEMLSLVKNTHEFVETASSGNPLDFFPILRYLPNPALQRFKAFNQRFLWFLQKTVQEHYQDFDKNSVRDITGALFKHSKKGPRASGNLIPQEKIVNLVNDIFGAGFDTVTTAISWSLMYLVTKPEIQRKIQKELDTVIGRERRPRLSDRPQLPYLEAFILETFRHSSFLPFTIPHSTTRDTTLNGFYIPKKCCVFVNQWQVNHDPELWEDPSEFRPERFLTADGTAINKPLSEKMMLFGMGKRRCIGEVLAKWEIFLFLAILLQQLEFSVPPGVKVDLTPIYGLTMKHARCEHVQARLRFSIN

[2] = Cmax in rat at 10 mg/kg, po by LC-MS/MS analysis; type: ADME, organism-based; parameters: dose 10 mg/kg, route oral; conditions: in vivo
Cavia porcellus = assay: Cardiotoxicity in guinea pig assessed as effect on PQ interval at 22.4 mg/kg; type: toxicity, organism-based; conditions: in vivo
[3] = biological target: Sodium-dependent noradrenaline transporter (Homo sapiens) (UniProt P23975); assay: Displacement of [3H]nisoxetine from recombinant human norepinephrine transporter at 10 uM after 120 mins by scintillation counting method relative to control
Chain of Sodium-dependent noradrenaline transporter (Homo sapiens) (P23975 whole entry): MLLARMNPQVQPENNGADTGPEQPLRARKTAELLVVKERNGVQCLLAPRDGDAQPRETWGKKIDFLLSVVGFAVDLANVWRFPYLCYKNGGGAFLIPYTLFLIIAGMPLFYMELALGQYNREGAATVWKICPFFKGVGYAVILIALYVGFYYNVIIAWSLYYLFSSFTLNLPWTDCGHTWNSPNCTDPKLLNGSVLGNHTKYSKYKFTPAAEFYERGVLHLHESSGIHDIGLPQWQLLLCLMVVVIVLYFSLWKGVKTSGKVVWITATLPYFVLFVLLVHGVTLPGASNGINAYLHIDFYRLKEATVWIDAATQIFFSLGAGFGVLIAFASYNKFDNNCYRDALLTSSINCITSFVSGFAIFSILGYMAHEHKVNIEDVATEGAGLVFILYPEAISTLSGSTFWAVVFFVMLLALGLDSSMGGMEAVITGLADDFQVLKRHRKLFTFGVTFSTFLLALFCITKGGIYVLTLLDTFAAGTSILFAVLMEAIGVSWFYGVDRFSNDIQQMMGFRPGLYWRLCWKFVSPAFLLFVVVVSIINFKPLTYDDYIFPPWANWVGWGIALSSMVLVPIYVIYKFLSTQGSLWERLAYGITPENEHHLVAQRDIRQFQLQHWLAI

Mus musculus [4] = assay: Antiobesity activity in diet-induced obesity C57Bl6/J mouse model assessed as basal glucose level in plasma at 10 mg/kg bid for 15 days measured on day 15 post 6 hrs fasting (reference value: 187 +/- 24 mg/dL); type: functional
Mus musculus [5] = assay: Oral bioavailability in mouse at 14.6 mg/kg by LC-MS/MS analysis; type: ADME, organism-based; conditions: in vivo
Cytochrome P450 3A4 = Cytochrome P450 3A4 (Homo sapiens, UniProt P08684); assay: Inhibition of CYP3A4 (unknown origin); type: ADME
Chain of Cytochrome P450 3A4 (P08684 whole entry): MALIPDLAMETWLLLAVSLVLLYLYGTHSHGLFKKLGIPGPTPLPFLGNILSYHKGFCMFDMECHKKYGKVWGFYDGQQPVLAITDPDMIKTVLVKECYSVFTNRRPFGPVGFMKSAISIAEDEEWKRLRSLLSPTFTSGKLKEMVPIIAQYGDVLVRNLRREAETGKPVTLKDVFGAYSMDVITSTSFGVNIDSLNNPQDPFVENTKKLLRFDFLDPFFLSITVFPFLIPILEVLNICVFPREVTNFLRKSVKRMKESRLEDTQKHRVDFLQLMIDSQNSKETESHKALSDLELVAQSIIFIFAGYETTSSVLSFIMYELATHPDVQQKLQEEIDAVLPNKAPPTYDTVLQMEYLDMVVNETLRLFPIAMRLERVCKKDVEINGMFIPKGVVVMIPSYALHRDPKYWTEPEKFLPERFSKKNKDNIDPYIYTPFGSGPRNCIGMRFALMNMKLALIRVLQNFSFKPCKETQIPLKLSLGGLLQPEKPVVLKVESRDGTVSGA

Mus musculus [6] = assay: Antiobesity activity in diet-induced obesity C57Bl6/J mouse model assessed as basal glucose level in plasma at 10 mg/kg qd for 15 days measured on day 15 post 6 hrs fasting (reference value: 187 +/- 24 mg/dL); type: functional

INH (Cytochrome P450 2C9): 7 µM | INH (Cytochrome P450 1A2): > 10 µM | Cmax [2]: 11600 ng/mL | inhibition [3]: 51% | F (Mus musculus [5]): 166% | INH (Cytochrome P450 3A4): > 10 µM
Compound: O=C(O)CCc1cc(F)c(OCc2c(C(F)(F)F)ccn2-c2ccc(Cl)cc2)c(F)c1
Activity (Mus musculus [1]): -1080 pg/mL | Activity (Cavia porcellus): Non-Toxic | Activity (Mus musculus [4]): 203 mg/dL | Activity (Mus musculus [6]): 202 mg/dL
